The assay concerns the target T1, LTD4 /E4 receptors (Cavia porcellus, UniProt Q2NNR5).
T1 construct: membrane fractions, containing the LTD4 /E4 receptors, are prepared from guinea-pig lung parenchyma; from tissue; host or cells: guinea-pig lung parenchyma membrane fractions
T1 sequence (Q2NNR5 1-340): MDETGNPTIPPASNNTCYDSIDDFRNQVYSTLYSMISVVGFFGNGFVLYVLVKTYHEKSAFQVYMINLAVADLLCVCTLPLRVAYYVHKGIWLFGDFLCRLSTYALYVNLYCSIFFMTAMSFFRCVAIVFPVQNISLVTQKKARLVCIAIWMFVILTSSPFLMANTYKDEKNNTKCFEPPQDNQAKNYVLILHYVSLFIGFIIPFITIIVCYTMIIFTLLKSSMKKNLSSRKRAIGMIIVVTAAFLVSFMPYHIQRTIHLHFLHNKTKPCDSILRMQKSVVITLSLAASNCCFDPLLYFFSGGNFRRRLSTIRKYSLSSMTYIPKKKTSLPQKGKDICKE
As to the kind of experiment: receptor-ligand binding assay, 3H-LTD4 on guinea-pig lung parenchyma membrane fractions. The following applies: 1 nM 3H-LTD4, 30 minutes at 22° C.; Ki calculated from IC50 by the Cheng-Prusoff equation. The protocol: According to this procedure, membrane fractions, containing the LTD4 /E4 receptors, are prepared from guinea-pig lung parenchyma and incubated for 30 minutes at 22° C. with 1 nM ^3 H-LTD4 in the absence or presence of tested antagonist. Specific binding, determined under conditions that prevent enzymatic metabolism of ^3 H-LTD4, is the net result of total ^3 H-LTD4 binding minus nonspecific binding determined in the presence of […] excess unlabelled LTD4. Each assay is done in duplicate and results (Ki values) are typically a mean of several such determinations in individual receptor batches.
The % inhibition by a tested antagonist, relative to control binding (vehicle alone), is expressed as a […] of log[antagonist] concentration (in molar units) and the half-maximal inhibition (IC50) determined by computerized non-linear least-square analysis. The binding constant (Ki) is then calculated from IC50 by the Cheng-Prusoff equation: [formula] where [L] is ^3 H-LTD4 concentration and Kd is the affinity constant of LTD4 to this receptor, determined separately for each batch. (Biochem. Pharmacol. 22: 3099-3108, 1973).

Structures are written as SMILES. pKi: −log10 of the molar value.

Take `COc1cc(C(=O)NS(=O)(=O)c2ccccc2C)ccc1Cc1cn(C)c2ccc(CCNC(=O)N(C)C)cc12` [Example 4, 4-[5-[2-(N',N'-Dimethylureido)ethyl]-1-methylindol-3-ylmethyl]-3-methoxy-N-(2-methylphenylsulfonyl)benzamide]: the pKi is 9.00.

Values taken from patent US5041460A, “Heter-aliphatic carboxamides” (ICI Americas Inc., priority 1989, dated 1991).
